Source: publication PMC9571170, “Exploring Active Ingredients, Beneficial Effects, and Potential Mechanism of Allium tenuissimum L. Flower for Treating T2DM Mice Based on Network Pharmacology and Gut Microbiota” (Nutrients, 2022)

Tested on: not given
Assay: not given
Parameters: method as in TCMSP database
Conditions: filter condition; ref TCMSP database; cited from earlier work

Row | SMILES | Oral bioavailability (OB)
1 | O=c1c(O)c(-c2ccc(O)cc2)oc2cc(O)cc(O)c12 [AF−8, kaempferol] | ≥ 30%
2 | CC(C)=CCc1cc(-c2oc3cc(O)cc(O)c3c(=O)c2O)ccc1O [AF−11, isolicoflavonol] | ≥ 30%
3 | CN1[C@H]2C[C@H](OC(=O)[C@H](CO)c3ccccc3)C[C@@H]1[C@@H](O)C2 [AF−23, anisodamine] | ≥ 30%

Biological target: α−Glucosidase (from yeast)
Assay: In vitro α−glucosidase inhibitory activity assay (PNPG substrate)
Format: biochemical
Conditions: n=3; acarbose positive control
Description: The α−glucosidase inhibitory activity assay method of A. tenuissimum flower flavonoids was slightly modified based on previous studies. A 96−well plate was used for preparing the mixture consisting of 0.1 M PBS (pH 6.8), 1.0 mg/mL sample solution, and 2 U/mL α−glucosidase, which were incubated at 37 °C for 10 min. 20 μL PNPG solution (2.5 Mm, dissolved in PBS) was added to each well to start the reaction and incubated at 37 °C. Twenty minutes later, 80 μL Na2CO3 solution (0.2 mol/L) was added to each well to terminate the reaction. The absorbance was measured at 405 nm by Tecan Infinite M200 PRO (Tecan Trading Co. Ltd., Shanghai, China). […] The inhibitory rate was calculated by the absorbance formula below:Inhibition% = [1 − (Aa − Ab) / Ac] × 100% a. 20 μL PNPG + 80 μL Na2CO3 + 20 μL PBS + 20 μL sample + 20 μL enzyme; b. 20 μL PNPG + 80 μL Na2CO3 + 40 μL PBS +20 μL sample; c. 20 μL PNPG + 80 μL Na2CO3 + 40 μL PBS + 20 μL enzyme.

Row | IC50 | SMILES
4 | 289 ± 14 µM | CC(=O)OCC1OC(OC2C(C)OC(Oc3c(-c4ccc(O)cc4)oc4cc(O)cc(O)c4c3=O)C(O)C2O)C(O)C(O)C1O (centres unmarked) [AF−1, multiflorin A]
5 | 176 ± 6 µM | CC(C)=CCc1cc(-c2oc3cc(O)cc(O)c3c(=O)c2O)ccc1O [AF−11, isolicoflavonol]
6 | 506 ± 1 µM | COc1ccc(-c2oc3cc(OC)cc(O)c3c(=O)c2OC2OC(CO)C(O)C(O)C2O)cc1 (centres unmarked) [AF−15, kaempferol−4’,7−dimethyl−3−O−glucoside]
7 | 300 ± 23 µM | O=C(C=Cc1ccc(O)cc1)OCC1OC(Oc2c(-c3ccc(O)cc3)oc3cc(O)cc(O)c3c2=O)C(O)C(O)C1OC(=O)C=Cc1ccc(O)cc1 (stereo not drawn) [AF−33, kaempferol−3−O−β−D−4′′,6′′− di−(E)−p−coumaroyl glucoside]
8 | 335 ± 1 µM | O=c1c(OC2OC(COC3OC(CO)C(O)C(O)C3OC3OC(CO)C(O)C(O)C3O)C(O)C(O)C2O)c(-c2ccc(O)cc2)oc2cc(O)cc(O)c12 (stereo not drawn) [AF−34, kaempferol 3−O−β−D−glucopyranosyl−(1→2) −β−D−glucopyranosyl−(1→6)−β−D−glucopyranodide]
9 | 230 ± 34 µM | COc1ccc(-c2oc3cc(O)cc(O)c3c(=O)c2O)cc1CC=C(C)C [AF−38, macasiamenol B]
10 | 282 ± 3 µM | COc1ccc(-c2oc3cc(O)cc(O)c3c(=O)c2OC2OC(CO)C(O)C(O)C2O)cc1O (centres unmarked) [AF−40, tamarixin]

Row | SMILES | IC50
11 | COc1cc(-c2oc3cc(O)cc(O)c3c(=O)c2OC2OC(COC(C)=O)C(O)C(O)C2O)ccc1O (stereo not drawn) [AF−36, isorhamnetin 3−O−β−D−(6−acetyl)−galactopyranoside] | 326 ± 13 µM
